We go through 22 compounds from patent US6255347A (priority 1997, dated 2001).

Data set [1] has as its system APPs secretion by NIH 3T3 cell lines. To be noted: 50 μM; for Density of APPs band: 20 h culture, n = 2, mean ± S.D.
Data set [2] shares this test system. In words: cells. To be noted: Mus musculus, NIH3T3, 20 h, read-out: fold increase of APPs secretion.
The conditions of data set [3]: cited from earlier work.
The next data set relates to rat stomach and duodenum. In words: Gastric ulcer index / gastroduodenal lesions in rat. In kind it is in vivo. Here is the method:
Male Sprague-Dawley rats (12 month) were obtained from Harlan-Sprague-Dawley, Inc. (Indianapolis, Ind.) and housed under controlled conditions of temperature humidity and light/dark cycle. […] Rat blood, brain and 50 μl of cerebrospinal fluid were collected and stored at -70° C. for APPs and PKC analysis by Western blotting. Rat stomach and duodenum were collected for the quantitation of gastroduodenal lesions.
The rat stomach and first 12 cm of the duodenum were opened and carefully shed with saline to remove any residual debris and fixed in 10% buffered formaldehyde. Tissues were examined macroscopically (×10) for lesions and hemorrhages. The evaluation of lesions or hemorrhages was based on the ulcer index (UI) reported by Leyck et al. (1985) and expressed as the sum total of lesions per treatment. The scoring units used ranged from 0 to 5, where zero represents no macroscopically visible lesions; 1 represents one to three small ulcers less than 4 mm; 2 represents more than three small ulcers; 3 represents ulcer hemorrhages with several small ulcers; 4 represents large (>4 mm) ulcers; 5 indicates tissue perforation.

The next data set deals with cyclooxygenase. The following applies: cited from earlier work.
A further data set has as its system NIH 3T3 cells. The experiment in a line: Foci formation assay, inhibition of PMA induced neoplastic transformation of NIH 3T3 cells. The data set is classed as cell-based. The following applies: PMA 0.02 μg/ml, 2% FBS. Here is the method: (§1) NIH 3T3 cells (American Type Culture Collection, Rockville, Md.) were cultured in DMEM supplemented with 10% FBS inoculated at 10^4 cells/35 […] dish. […] PMA and ibuprofen were dissolved in DMSO and stored in 5% DMSO stock solutions that were diluted a 1000-fold with culture media prior to use. […] The media containing freshly added PMA and ibuprofen were changed every 60 hours for both the foci formation assay and PKCα analysis by Western blot.
Subsequent to washing with a tris/ saline buffer, the cells were stained with a solution of 4% aqueous Giemsa stain in phosphate buffer (pH 7.0). Foci of transformed cells were then visible by eye due to their high local density and verified by under light microscopy.

The next data set addresses T1, PKC (Rattus norvegicus, UniProt P05696).
T1 construct: Partially purified PKCα from rat brain; purchased Promega (Madison, Wis.); host or cells: rat brain (tissue enzyme, partially purified)
The experiment in a line: Protein kinase C activity assay (histone phosphorylation, partially purified rat brain PKC). The data set is classed as biochemical. The following applies: PMA stimulated, 2 min, 30° C. As to the method:
The following were obtained from the Sigma Chemical Co. (St. […] Anti-PKCα antibody (affinity purified) and its C-terminal region peptide was obtained from Life Technologies (Gaithersburg, Md.). […] All other chemicals were of the highest available purity and were obtained from standard commercial sources. […] Following 2 min initial incubation at 30° C., kinase reactions were initiated by the addition of ^32 P-γ-ATP and enzyme and continued at 30° C. for 2 min. Control incubations contained all assay components except enzyme and ibuprofen. […] All samples were carried out in duplicate.

In the next data set the test system is PKCα. The experiment in a line: PKCα translocation in NIH 3T3 cells (subcellular fractionation, Western blot). The following applies: 10 μg/ml. In kind it is cell-based. As to the method:
as §1
The cells were washed twice with phosphate-buffered saline (PBS) at 37° C. and subsequently lysed and scraped in 1 ml ice-cold protein lysis buffer (20 mM Tris-HCl, pH7.4, 2 mM EGTA, 2 mM EDTA, […] leupeptin and […] aprotinin) at 4° C. […] Briefly, cells were homogenized 10× in 15 ml glass homogenizer with a tight-fitting pestle and centrifuged at 900×g for 10 min. The resulting supernatant was then centrifuged at 100,000×g for 60 min to produce a nucleus-free membrane fraction (pellet) and a cytosol fraction (supernatant) for Western blots. The 900×g nuclear pellet was suspended in the 2 ml lysis buffer containing 10% sucrose and 0.1% Triton X-100 and washed twice by centrifuging at 1000×g for 10 min, then resuspended in 1 ml of the same buffer without Triton X-100 for Western blots. The purity of the fractions was monitored by light microscopy. […] The samples were stored at -70° C. until analysis.
15 μl of human plasma, 15 μl of rat plasma, CSF or 50 μg of rat brain protein were denatured with 35 μl of sample buffer at 95° C. for 4 min. Denatured proteins were separated by 10% SDS-polyacrylamide gel electrophoresis with a 50 μg or 20 μg protein load for each sample for APPs or PKC, respectively, and electrophoretically transferred from gel to nitrocellulose membrane. […] The immunoreactive bands were developed using enhanced chemilumenescence (ECL. Amersham Life Sci., Little Chalfont, UK), following extensive washing with the blocking buffer. The PKC bands were verified in each case by competitively blocking the signal with the peptide corresponding to each of PKCs. The bands were quantitated by scanning densitometry. Quantitative comparisons were made between samples processed simultaneously on one blot.

Data set [4] concerns human neoplastic diseases. The following applies: cited from earlier work.

Values joined by “and” are separate entries in the source; they are usually repeats but may differ in a detail not shown here. Equal values may be shown once. “Also recorded” adds a separate entry of the source. Where a name gives a salt, the structure may show the parent alone. Read-outs that look alike come from different tables or passages of the source. *1 amine or outer side, *2 acyl side, *3 side chain or, on linkers, in order; H or OH if unused. Where a SMILES comes first, the peptide text is derived from it. Bridges are numbered along the chain shown (N, C = ends). Roman numbers before positions name the chains, in order. [ ]: non-standard residue; d: D form. Actinocin(9to1) = Cc1c2oc3c(C)ccc(C(=O)[*:1])c3nc-2c(C(=O)[*:2])c(N)c1=O; NMeV = CN[C@H](C(=O)O)C(C)C; Sar = CNCC(=O)O

As to `CC(C(=O)O)c1cccc(Oc2ccccc2)c1` (racemic) [RS-Fenoprofen], in [1], the “Density of APPs band” value is listed as 6.36 ± 0.77. In addition, the fold induction at 50 µM in data set [2] came out at 1.6.

As to `CC(C(=O)O)c1ccc(-c2ccccc2)c(F)c1` (racemic) [RS-Flubiprofen], the “Density of APPs band” value in [1] was 3.07 ± 0.34.

With `Cc1c2oc3c(C)ccc(C(=O)N[C@@H]4C(=O)N[C@H](C(C)C)C(=O)N5CCC[C@H]5C(=O)N(C)CC(=O)N(C)[C@@H](C(C)C)C(=O)O[C@@H]4C)c3nc-2c(C(=O)N[C@@H]2C(=O)N[C@H](C(C)C)C(=O)N3CCC[C@H]3C(=O)N(C)CC(=O)N(C)[C@@H](C(C)C)C(=O)O[C@@H]2C)c(N)c1=O` [Actinomycin D] (I: T[dV]P[Sar][NMeV] / II: T[dV]P[Sar][NMeV]; ester I:1-I:C, II:1-II:C; linker I:N-II:N via Actinocin(9to1)), in data set [3] (in vivo), the elimination half-life entry is on record as “about 36 hr”, the excreted in urine is 10%, the “excreted intact into the bile (in words)” value is “Half of the dose” and the “passage of blood-brain barrier” value was “does not pass the blood-brain barrier”.

Regarding `O=C(O)CCCc1ccc(N(CCCl)CCCl)cc1` [Chlorambucil, 4-[bis(2-chlorethyl)amino]benzenebutanoic acid], the terminal half-life in data set [3] (in vivo) is 1.5 h.

Regarding `N.N.[Cl][Pt][Cl]` [Cisplatin], the “absorption (in words)” value in data set [3] (oral) is “not absorbed orally”.

In the case of `COc1cccc2c1C(=O)c1c(O)c3c(c(O)c1C2=O)C[C@@](O)(C(C)=O)C[C@@H]3O[C@H]1C[C@H](N)[C@H](O)[C@H](C)O1` [Daunorubicin, 5,12-Naphthacenedione, (8S-cis)-8-acetyl-10-[(3-amino-2,3,6-trideoxy-α-L-lyxo-hexanopyranosyl)oxy]-7,8,9,10-tetrahydro-6,8, 11-trihydroxy-10-methoxy-, hydrochloride], in [3] (in vivo, po), the “absorption (in words)” value was “Oral absorption is poor”. Further, in data set [3] (in vivo), the “secreted into the bile” value is recorded as about 40%.

Take `COc1cccc2c1C(=O)c1c(O)c3c(c(O)c1C2=O)C[C@@](O)(C(=O)CO)C[C@@H]3O[C@H]1C[C@H](N)[C@H](O)[C@H](C)O1` [Doxorubicin, 5,12-Naphthacenedione, (8s-cis)-10-[(3-amino-2,3,6-trideoxy-a-L-lyxo-hexopyranosyl)oxy]-7,8,9,10-tetrahydro-6,8,11 trihydroxy-8-(hydroxyacetyl)-1-methoxy-hydrochloride]: the “absorption (in words)” value in [3] (in vivo, po) is given as “absorbed poorly”. In addition, in [3] (in vivo), the elimination half-life entry was “about 30 hr” and the excreted in urine entry is given as “a few percent”.

`CO[C@@]12[C@H](COC(N)=O)C3=C(C(=O)C(C)=C(N)C3=O)N1C[C@@H]1N[C@@H]12` [Mitomycin]: in data set [3] (human, in vivo, iv), the “time required to reduce the serum concentration by 50%” value was 17 min. In addition, the “clearance from serum (in words)” value in [3] (in vivo, iv) was “rapidly cleared from the serum”. In addition, the excreted in urine entry in [3] (in vivo) is listed as “Approximately 10%”.

For the compound `CN1C(C(=O)Nc2ccccn2)=C(O)c2ccccc2S1(=O)=O` [Proxicam], the “Density of APPs band” value in data set [1] is 3.29 ± 0.77.

`C[C@@H](C(=O)O)c1cccc(Oc2ccccc2)c1` [R-Fenoprofen]: the “Density of APPs band” value in data set [1] is recorded as 5.32 ± 1.29. The fold induction at 50 µM in data set [2] was 1.3.

For `C[C@@H](C(=O)O)c1ccc(-c2ccccc2)c(F)c1` [R-Flubiprofen], the “Density of APPs band” value in [1] is 3.30 ± 0.81.

On to `C[C@@H](C(=O)O)c1cccc(C(=O)c2ccccc2)c1` [R-Ketoprofen], for which the “Density of APPs band” value in data set [1] is 3.41 ± 0.39 and 2.74 ± 0.34.

On to `CC(C(=O)O)c1cccc(C(=O)c2ccccc2)c1` (centres unmarked) [RS-Ketoprofen], for which the “Density of APPs band” value in data set [1] is 3.67 ± 0.27 and 2.94 ± 0.98.

As for `C[C@H](C(=O)O)c1cccc(Oc2ccccc2)c1` [S-Fenoprofen], the “Density of APPs band” value in data set [1] turned out to be 5.32 ± 1.53. For the same compound, the fold induction at 50 µM in [2] is 1.3.

For the compound `C[C@H](C(=O)O)c1ccc(-c2ccccc2)c(F)c1` [S-Flubiprofen], the “Density of APPs band” value in data set [1] stood at 2.37 ± 0.66.

For `C[C@H](C(=O)O)c1cccc(C(=O)c2ccccc2)c1` [S-Ketoprofen], in data set [1], the “Density of APPs band” value is 2.99 ± 0.57 and 3.76 ± 1.26.

`CC(C)Cc1ccc([C@H](C)C(=O)O)cc1` [S-ibuprofen]: the “Bleeding site (B), column 1” value with rat stomach and duodenum (10 mg/kg bid, 7 days, column 1) is recorded as 4. For the same compound, the “gastropathy (in words)” value in the data set on rat stomach and duodenum (rat, in vivo) is “induced serious gastric ulcers and hemorrhage”. In the data set on cyclooxygenase, the “capability to inhibit cyclooxygenase (in words)” value was “inhibition of cyclooxygenase activity by ibuprofen resides almost exclusively in the S-enantiomer”. The “potency in suppressing prostaglandin formation, S- versus R-ibuprofen” value with cyclooxygenase (from arachidonic acid) was “approximately 100 times”. Moreover, the “inhibition of foci formation, enantiomers compared to racemate” value in the data set with NIH 3T3 cells is given as “more pronounced than that of the racemate; also recorded: more effective than the racemic mixture”. Also, the “inhibition of PMA induced foci formation / neoplastic transformation” value with NIH 3T3 cells (6 weeks, ibuprofen 10 or 100 μg/ml) is “dramatically decreased; also recorded: inhibit the neoplastic transformation; also recorded: substantially inhibited”. Further, the “concentration inhibiting PKC mediated histone phosphorylation” value at PKC came to 1 µM. Moreover, the “inhibition of PKCα translocation from cytosol to nuclear compartments” value with PKCα (PMA 4 hours) is “clearly modulated the time dependent intracellular redistribution of PKCα”. In the data set on PKCα (particularly 2 weeks of PMA), the “inhibition of PKCα translocation, racemate versus enantiomers” value was “more effective than the racemic mixture”.

As to `CC[C@]1(O)C[C@@H]2CN(CCc3c([nH]c4ccccc34)[C@@](C(=O)OC)(c3cc4c(cc3OC)N(C)[C@H]3[C@@](O)(C(=O)OC)[C@H](OC(C)=O)[C@]5(CC)C=CCN6CC[C@]43[C@@H]65)C2)C1` [Vinblastine], in data set [4] (lymphomas, particularly Hodgkin's disease), the “cases with significant improvement” value is listed as 50 to 90%. In data set [3] (in vivo), the excreted in urine entry is reported as “Approximately 15%” and the “recovered in the feces” value is “about 10%”.

For the compound `CC[C@]1(O)C[C@H]2CN(CCc3c([nH]c4ccccc34)[C@@](C(=O)OC)(c3cc4c(cc3OC)N(C=O)[C@H]3[C@@](O)(C(=O)OC)[C@H](OC(C)=O)[C@]5(CC)C=CCN6CC[C@]43[C@@H]65)C2)C1` [Vincristine], the “concentration in blood cells (in words)” value in [3] (in vivo) is “extensively concentrated in platelets and to a lesser extent in leukocytes and erythrocytes”. The “absorption (in words)” value in data set [3] (oral) is on record as “Unpredictable absorption”.

With `CS(=O)(=O)OCCCCOS(C)(=O)=O` [busulfan, 1,4-butanediol dimethanesulfonate], the “patients obtaining hematologic remission” value in data set [4] (previously untreated chronic myelogenous leukemia, adults) is “Approximately 90%”.

For the compound `COc1cccc2c1C(=O)c1c(O)c3c(c(O)c1C2=O)C[C@@](O)(C(C)O)C[C@@H]3O[C@H]1C[C@H](N)[C@H](O)[C@H](C)O1` (some centres unmarked) [daunorubicinol], the elimination half-life entry in [3] (in vivo) was “about 27 hr”.

Consider `CC(C(=O)O)c1cccc(Oc2ccccc2)c1` (centres unmarked) [fenoprofen], for which the “APPs secretion (in words)” value in [1] (20 h) is “increased APPs secretion”.
